{
  "source": "patent US20110319340A1",
  "about": "“METHODS FOR TREATING CANCER” (The Board of Regents, The University of Texas System, priority 2008, published 2011)",
  "type_in_all_cases": "cell-based",
  "key": {"[1]": {"tested_on": "melanoma cell adhesion molecule (MCAM)", "assay": "Gene array analysis of MCAM expression in human coronary artery endothelial cells", "conditions": "TNF alpha 5 ng/ml, 6 hours", "description": "(§1) Human coronary artery endothelial cells (Cambrex BioScience; Walkersville, Md.) were split into T-75 flasks (BD Falcon) and cultured in endothelial cell basal medium (EBM) with 2% fetal bovine serum (FBS) and growth factors (SingleQuotsTM, Clonetics, San Diego, Calif.) in 5% CO2 at 37° C. […] After 6 hours of incubation, total RNA was isolated using RNAqueous kits (Ambion, Austin, Tex.) as described by the manufacturer. mRNA samples were reverse-transcribed using Taqman Reverse Transcription Reagents Kits (Applied Biosystems, Inc.) and analyzed by gene array analysis using […] plus 2 chip sets (Affimetrix). All procedures and analysis of gene array data were performed in the UTMB Molecular Genomics and MicroArray Core Facility."}, "snail homolog 3 (SNAI3)": {"tested_on": "snail homolog 3 (SNAI3)", "assay": "Gene array analysis of SNAI3 expression in human coronary artery endothelial cells", "conditions": "TNF alpha 5 ng/ml, 6 hours", "description": "as §1, with “(Affimetrix).” for “(Affimetrix). All procedures and analysis of gene array data were performed in the UTMB Molecular Genomics and MicroArray Core Facility.”"}, "[2]": {"tested_on": "bone morphogenetic protein 9 (BMP9)", "assay": "Gene array analysis of BMP9 expression in human coronary artery endothelial cells", "conditions": "TP508 50 μg/ml or TNF alpha 5 ng/ml, 6 hours", "description": "Human coronary artery endothelial cells (Cambrex BioScience; Walkersville, Md.) were split into T-75 flasks (BD Falcon) and cultured in endothelial cell basal medium (EBM) with 2% fetal bovine serum (FBS) and growth factors (SingleQuotsTM, Clonetics, San Diego, Calif.) in 5% CO2 at 37° C. […] All procedures and analysis of gene array data were performed in the UTMB Molecular Genomics and MicroArray Core Facility."}, "[3]": {"tested_on": "bovine aortic endothelial cells", "assay": "Binding of KML4A colon cancer cells to bovine aortic endothelial cell monolayers", "conditions": "TNF alpha 50 ng/ml for 24 hours; binding after 30 minutes", "procedure": "In this experiment, bovine aortic endothelial cells (BAEC; Cambrex BioScience; Walkersville, Md.) were plated in 24-well plastic tissue culture plates (BD Falcon™) at a density of 35,000 cells per cm^2 and cultured in endothelial cell basal medium (EBM) with 2% fetal bovine serum (FBS) and growth factors (SingleQuots™, Clonetics, San Diego, Calif.) in 5% CO2 at 37° C. for three days. BAEC monolayer cultures were then pretreated with saline (Control) or TP508 (TP) and then treated with saline or TNF alpha (TNF, 50 ng/ml) for 24 hours. KML4A cells were labeled with fluorescent CytoTracker™ as described in Example 1 above and added to the BAEC monolayers in EBM medium complete with fetal bovine serum and SingleQuot growth factor supplements (30,000 cells per well). After thirty (30) minutes, the cell monlayers were rinsed two times to remove unbound KML4A cells and the monolayers were solubilized using 200 μl of Cell Solubilizing Solution (Cell Biolabs, Inc.). Fluorescence of the solubilized KML4A that had bound to the endothelial cells was measured by transferring aliquots of the solubilized monolayers to 96-well black plates and reading them in a SyQuest BioLabs Fluorescent Plate Reader (480 nm/520 nm). Data is expressed as Relative Fluorescence Units."}, "[4]": {"tested_on": "metastasis associated in colon cancer 1 (MACC1)", "assay": "Gene array analysis of MACC1 mRNA in human coronary artery endothelial cells", "conditions": "TNF alpha 5 ng/ml, 6 hours", "description": "as §1"}, "[5]": {"tested_on": "human microvascular endothelial cells", "assay": "Phase contrast micrographs of human microvascular endothelial cells co-incubated with KML4A cells", "conditions": "after 22 hours; TP508 50 μg/ml 8 hours pretreatment; thrombin 2 U/ml or TNF alpha 5 ng/ml 16 hours", "description": "Human microvascular endothelial cells (Cambrex BioScience; Walkersville, Md.) were plated on 48-well tissue culture plates (BD Falcon) 30,000 cells per well, and cultured in endothelial cell basal medium (EBM) with 2% fetal bovine serum (FBS) and growth factors (SingleQuots™, Clonetics, San Diego, Calif.) in 5% CO2 at 37° C. for three days. […] Photomicrographs were captured at various times after addition of KML4A cells using an inverted Leitz Diavert microscope (original magnification, 200×) equipped with Spot Idea™ digital camera (Diagnostic Instruments, Inc.). Micrographs were taken at the center of each well to avoid any differences in original cell density."}, "[6]": {"tested_on": "human umbilical vein endothelial cells", "assay": "Transendothelial migration of KML4A tumor cells through human umbilical vein endothelial cell monolayer", "conditions": "thrombin 2 U/ml for 24 hours; migration after 18 hr", "source_text": "In this experiment, as in Example 1, KML4A tumor cells derived from a human colon cancer and selected for repeated metastasis to the liver (Morikawa et al., supra) were harvested from established cultures and labeled with fluorescent CytoTracker™ (Cell Biolabs, inc.) and re-established as a uniform cell suspension. Human endothelial cell monolayers were established in transmembrane inserts supplied by Cell Biolabs, Inc., by plating 50,000 human umbilical vein endothelial cells (Cambrex BioScience; Walkersville, Md.) per insert and culturing them in endothelial cell basal medium (EBM) with 2% fetal bovine serum (FBS) and growth factors (SingleQuots™, Clonetics, San Diego, Calif.) in 5% CO2 at 37° C. for three days. […] Fluorescently labeled KML4A tumor cells (35,000 cells per insert in serum-free medium containing 1% bovine serum albumin) were then added to the culture inserts and the inserts placed into wells of a 24-well tissue culture plate (BD Falcon) with 0.5 ml of growth medium containing 10% fetal bovine serum to act as a chemoatractant for the tumor cells. The number of cells migrating through the filter inserts to the filter bottom was determined 18 hr later by measuring the fluorescence of material recovered from the filter bottom using a SyQuest BioLabs Fluorescent Plate Reader (480 nm/529 nm). Data is expressed as Relative Fluorescence Units."}, "[7]": {"tested_on": "human umbilical vein endothelial cells", "assay": "Phase contrast micrographs of human umbilical vein endothelial cells co-incubated with KML4A cells", "conditions": "after 22 hours; thrombin 2 U/ml 16 hours, with or without TP508 50 μg/ml 8 hours pretreatment", "from_the_text": "Photomicrographs were captured at various times after addition of KML4A cells using an inverted Leitz Diavert microscope (original magnification, 200×) equipped with Spot Idea™ digital camera (Diagnostic Instruments, Inc.). Micrographs were taken at the center of each well to avoid any differences in original cell density."}},
  "data": [
    {"substance": "TNF alpha", "values": [
      {"measurement": "effect on endothelial cell expression of MCAM", "setting": "[1]", "result": "increases endothelial cell expression of MCAM"},
      {"measurement": "effect on endothelial cell expression of SNAI3", "setting": "snail homolog 3 (SNAI3)", "result": "increases endothelial cell expression of SNAI3"},
      {"measurement": "effect on expression of BMP9", "setting": "[2]", "result": "does not"},
      {"measurement": "increase of binding of KML4A cells", "setting": "[3]", "result": "approximately 8 fold"},
      {"measurement": "effect on endothelial cell expression of MACC1 mRNA", "setting": "[4]", "result": "increases endothelial cell expression of MACC1"},
      {"measurement": "endothelial cell damage and loss after co-incubation with KML4A cells", "setting": "[5]", "result": "damaged and released from the culture substrate"}
    ]},
    {"substance": "Thrombin", "values": [
      {"measurement": "effect on KML4A transedothelial migration", "setting": "[6]", "result": "increased transedothelial migration"},
      {"measurement": "endothelial cells remaining after co-incubation with KML4A cells", "setting": "[7]", "result": "few if any remaining endothelial cells"},
      {"measurement": "endothelial cell damage and loss after co-incubation with KML4A cells", "setting": "[5]", "result": "damaged and released from the culture substrate"}
    ]}
  ]
}
